Measurements reported in US20160151318A1, “USE OF NITRATED LIPIDS FOR TREATMENT OF LIPID DISORDERS AND OBESITY, AND LIPID- AND OBESITY-RELATED CONDITIONS” (THE UNIVERSITY OF UTAH RESEARCH FOUNDATION, priority 2008, published 2016).

Key:
Zucker obese rats = assay: Chronic infusion of OA-NO2 or OA in Zucker obese rats (obesity, hyperlipidemia, kidney injury); assay type: in vivo, rat; details: 7.5 μg/kg/day via osmotic mini-pump; for reduction of proteinuria (urinary protein excretion): 24-hour urine (FIG. 7); for plasma free fatty acid levels (non-esterified fatty acid): fasted (FIG. 3B); for plasma cholesterol levels: fasted (FIG. 4); for plasma HDL levels: fasted (FIG. 5A); for body weight gain: male 4-mo-old Zucker obese rats, vs. vehicle control (FIG. 1)
Protocol: Male 4-month-old Zucker obese and Zucker diabetic rats were from Charles River Laboratory (Wilmington, Mass.). All animals were housed in an air-conditioned room with a 12-hour light/dark cycle. All procedures and protocols were in accordance with guidelines set by the Laboratory Animal Care Committee at the University of Utah. Two strains of Zucker rats, obese and diabetes (ZDF) (Charles River), were treated with vehicle (ethanol), OA-NO2 at 7.5 μg/kg/d, or OA at 7.5 μg/kg/d via an osmotic mini-pump. Under isoflurane anesthesia, the mini-pump was implanted under the skin of the neck area. Body weight, food intake, and collections of blood and urine samples were determined before and after treatment. Animals were fasted from 6:00 pm to 9:00 am before blood sampling. Blood sampling was conducted by making a small cut (˜2 mm) in the tail using razor blade. 24-hour urine was collected using metabolic cages. Adult Zucker obese rats develop severe obesity and hyperlipidemia but are relatively resistant to diabetes. Therefore, these animals were used for testing the weight-loss and lipid lowering effects of OA-NO2. To determine whether these effects are directly attributable to the nitration of the fatty acid, the parent fatty acid (OA) was used as a control. Starting from 4 mo of age, Zucker obese rats were chronically infused for 2 weeks with vehicle, OA-NO2 (9-nitrooleic acid and 10-nitrooleic acid are purchased from Cayman Chemical, Ann Arbor, MI and used as an 1:1 mixture), or OA each at 7.5 μg/kg/day via an osmotic mini-pump. Parameters including body weight, food intake, the lipid profile, oxidative stress, and urinary protein excretion were determined. Animals were fasted from 6:00 pm to 9:00 am before blood sampling.

Zucker diabetic rats = assay: Chronic infusion of OA-NO2 in Zucker diabetic rats (ZDF strain); assay type: in vivo, rat; details: 7.5 μg/kg/d via osmotic mini-pumps, 1 week, fasted
Protocol: Male 4-month-old Zucker obese and Zucker diabetic rats were from Charles River Laboratory (Wilmington, Mass.). All animals were housed in an air-conditioned room with a 12-hour light/dark cycle. All procedures and protocols were in accordance with guidelines set by the Laboratory Animal Care Committee at the University of Utah.
Two strains of Zucker rats, obese and diabetes (ZDF) (Charles River), were treated with vehicle (ethanol), OA-NO2 at 7.5 μg/kg/d, or OA at 7.5 μg/kg/d via an osmotic mini-pump. Under isoflurane anesthesia, the mini-pump was implanted under the skin of the neck area. Body weight, food intake, and collections of blood and urine samples were determined before and after treatment. Animals were fasted from 6:00 pm to 9:00 am before blood sampling. Blood sampling was conducted by making a small cut (˜2 mm) in the tail using razor blade. 24-hour urine was collected using metabolic cages.
To evaluate the efficacy of OA-NO2 for treatment of diabetes, Zucker diabetic rats were used. These animals develop severe hyperglycemia and hyperinsulinemia, the two major parameters of type 2 diabetes.

Compound	reduction of proteinuria (urinary protein excretion) (Zucker obese rats; Zucker obese rats, 2 weeks)	plasma free fatty acid levels (non-esterified fatty acid) (Zucker obese rats; Zucker obese rats, 2 weeks)	plasma cholesterol levels (Zucker obese rats; Zucker obese rats, 2 weeks)	plasma HDL levels (Zucker obese rats; Zucker obese rats, 2 weeks)	body weight gain (Zucker obese rats; 2 weeks)	hyperglycemia (plasma glucose) (Zucker diabetic rats; vs. Day 0 (FIG. 8A))	plasma insulin levels (Zucker diabetic rats; vs. Day 0 (FIG. 8B))	plasma TBARS (index of systemic oxidative stress), increase in obese vs. lean rats (Zucker obese rats; Zucker obese rats, 2 weeks (FIG. 6))	plasma triglyceride (Zucker obese rats; Zucker obese rats, 2 weeks, fasted, vs. vehicle control (FIG. 3A))	food intake (Zucker obese rats; Zucker obese rats, 2 weeks, vs. vehicle (FIG. 2))
CCCCCCCC/C=C\CCCCCCCC(=O)O [OA, Oleic acid, reference compound]	no significant effect	lack of an effect	unaffected	ineffective	not different	–	–	–	–	–
nitrooleic acid [OA-NO2]	50%	almost completely normalized	unaffected	significantly increased	less than that in the vehicle control	significantly attenuated	tended to reduce	significantly attenuated	significant triglyceride-lowering effect	significantly reduced
